{"source": "paper PMC7000209", "about": "“Novel small molecule modulators of quorum sensing in avian pathogenic Escherichia coli (APEC)” (Virulence, 2018)", "key": {"HD-11 cells": {"system": "HD-11 cells", "assay": "Lactate dehydrogenase (LDH) cytotoxicity assay, HD-11", "assay_type": "cell-based, chicken", "conditions": "100 µM, 24 h", "procedure": "(§1) The selected 10 AI-2 inhibitors were evaluated for their toxicity to Caco-2 (ATCC® HTB-37™) using LDH assay. Briefly, Caco-2 cells (1.4 × 10^5 cells/well) were grown in a 96-well plate in minimal essential medium (MEM) supplemented with 20% fetal bovine serum (FBS; Gibco), 1% non-essential amino acid (NEAA, Invitrogen Life Technologies) and 1mM sodium pyruvate, at 37 °C in a humidified 5% CO2 incubator for 48 h until a complete monolayer was formed. For LDH assay, cells were washed twice with media containing no FBS/no antibiotics and incubated with 150 µL of fresh media containing 100 μM of each compound at 37 °C for 24 h in a humidified 5% CO2 incubator. Fifty microliters of supernatant was analyzed using LDH Cytotoxicity Assay Kit (Thermo Scientific).\nToxicity was also determined on HD-11 cells (CVCL-4685). The HD-11 cells (1.4 × 10^5 cells/well) were grown in Iscove’s modified Dulbecco’s medium (IMEM; Gibco) supplemented with 2 mM glutamine and 10% FBS at 37 °C in a humidified 5% CO2 for 48 h until a monolayer was completely formed. LDH assay was conducted as described above."}, "APEC O78 in HD-11 cells": {"system": "APEC O78 in HD-11 cells", "assay": "Intracellular survival assay, APEC O78 in HD-11 cells", "assay_type": "cell-based, avian pathogenic E. coli (APEC) O78", "conditions": "MOI 100, 100 µM, 6 h; for reduction of intracellular survival of APEC O78: vs DMSO treated control", "procedure": "(§2) The effect of the selected AI-2 inhibitors on the survival of APEC in macrophage cells was tested as described before. Briefly, HD-11 cells was grown as described above and infected with 1 × 10^7 CFU (MOI = 100) of mid-log phase APEC strains (O78, O1 and O2) at 37 °C for 1 h. Cells were washed with PBS and treated with gentamicin (150 μg/mL) for 1 h to kill the extracellular bacteria. The cells were then washed and incubated with 100 µM of each compound in media containing 10 μg/mL of gentamicin at 37 °C for 6 h. Following treatment, cells were washed, lysed with 0.1% Triton X-100 for 5 min, ten-fold serially diluted in PBS and plated on LB agar plates to determine CFUs. Cells treated with chloramphenicol (40 μg/mL) and 1 μL of 100% DMSO were used as controls. The experiment was conducted two times with four replicates in each experiment. Intracellular survival was expressed as the log change of APEC CFUs in the AI-2 inhibitors treated cells."}, "Caco-2 cells": {"system": "Caco-2 cells", "assay": "Lactate dehydrogenase (LDH) cytotoxicity assay, Caco-2", "assay_type": "cell-based, human", "conditions": "100 µM, 24 h", "procedure": "as §1"}, "APEC O1 in HD-11 cells": {"system": "APEC O1 in HD-11 cells", "assay": "Intracellular survival assay, APEC O1 in HD-11 cells", "assay_type": "cell-based, avian pathogenic E. coli (APEC) O1", "conditions": "MOI 100, 100 µM, 6 h; for reduction of intracellular survival of APEC O1: vs DMSO treated control", "procedure": "as §2"}, "chicken RBCs": {"system": "chicken RBCs", "conditions": "1 h, 100 µM"}, "APEC O1 in THP-1 cells": {"system": "APEC O1 in THP-1 cells", "assay": "Intracellular survival assay, APEC O1 in THP-1 cells", "assay_type": "cell-based, avian pathogenic E. coli (APEC) O1", "conditions": "MOI 100, 100 µM, 6 h, vs DMSO treated control", "procedure": "as §2\n(§3) Similarly, the intracellular survival assay was also performed in THP-1 cells (ATCC® TIB-202™) as described above. The THP-1 cells were grown in RPMI 1640 medium (Gibco) supplemented with 10% FBS and 2 mM glutamine. In order to differentiate the THP-1 monocyte to macrophage, 100 nM phorbol myristate acetate (PMA; Sigma-Aldrich) was added to the media. The cells (1.4 × 10^5 cells/well) were grown in a 96-well plate in a 5% CO2 incubator at 37 °C for 48 h, infected with APEC (MOI = 100), treated with each compound and the intracellular bacteria was determined as above."}, "sheep RBCs": {"system": "sheep RBCs", "conditions": "1 h, 100 µM", "protocol": "The hemolytic activity of the selected AI-2 inhibitors was determined as described before [56]. Briefly, 200 µL of the 10% RBCs (LAMPIRE Biological Laboratories) suspension in PBS was incubated with 100 μM of each compound for 1 h in a 96-well plate. The plate was then centrifuged at 5000 × g for 5 min, placed on ice for 5 min and the absorbance of the supernatant was measured at 540 nm. PBS, 1% DMSO, and 0.1% Triton X-100 were used as controls. Two independent experiments were conducted in triplicate wells in each experiment."}, "APEC O2 in THP-1 cells": {"system": "APEC O2 in THP-1 cells", "assay": "Intracellular survival assay, APEC O2 in THP-1 cells", "assay_type": "cell-based, avian pathogenic E. coli (APEC) O2", "conditions": "MOI 100, 100 µM, 6 h; for reduction of intracellular survival of APEC O2: vs DMSO treated control", "procedure": "as §2, §3"}, "APEC O78 in THP-1 cells": {"system": "APEC O78 in THP-1 cells", "assay": "Intracellular survival assay, APEC O78 in THP-1 cells", "assay_type": "cell-based, avian pathogenic E. coli (APEC) O78", "conditions": "MOI 100, 100 µM, 6 h, vs DMSO treated control", "procedure": "as §2\nas §3, with “In order to differentiate the THP-1 monocyte to macrophage, 100 nM phorbol myristate acetate (PMA; Sigma-Aldrich) was added to the media.” left out"}, "G. mellonella larvae": {"system": "G. mellonella larvae", "assay": "Toxicity of SMs in wax moth larvae", "assay_type": "in vivo, Galleria mellonella", "conditions": "uninfected larvae, 12.5 µg/larva (50 mg/kg), 72 h", "procedure": "To confirm that the death of the larvae was not due to the compounds, intrinsic toxicity the AI-2 inhibitors were assessed in a separate experiment. G. mellonella larvae (fifth instar; n = 10) were inoculated with 8.5 µL of SMs (50 mg/kg body weight; 12.5 µg/ larva) into the hemocoel via the last left proleg. Post inoculation, larvae were placed inside sterile petri dishes and incubated in the dark at 37 °C for 72 h and larval survival was monitored every 24 h. Two independent experiments were conducted"}}, "data": [{"smiles": "Cc1ccc(CN2CCN(CCCc3ccccc3)CC2)cc1", "note": "[C5, 1-(4-methylbenzyl)-4-(3-phenylpropyl)piperazine]", "values": [{"measurement": "cytotoxicity (LDH release)", "setting": "HD-11 cells", "result": "less than 10%"}]}, {"smiles": "CS/C(N)=N/N=C/c1cc(C)ccc1O", "note": "[C4, methyl N'-(2-hydroxy-5-methylbenzylidene)h ydrazonothiocarbamate]", "values": [{"measurement": "reduction of intracellular survival of APEC O78", "setting": "APEC O78 in HD-11 cells", "result": "up to 1 logs"}, {"measurement": "cytotoxicity (LDH release)", "setting": "Caco-2 cells", "result": 12, "unit": "%"}]}, {"smiles": "NC(=O)c1ccccc1Nc1cccc(C(F)(F)F)c1", "note": "[C3, 2-{[3-(trifluoromethyl)phenyl]amino}benzamide]", "values": [{"measurement": "clearance of intracellular APEC O1", "setting": "APEC O1 in HD-11 cells", "result": 100, "unit": "%"}, {"measurement": "reduction of intracellular survival of APEC O1", "setting": "APEC O1 in HD-11 cells", "result": "~ 4 logs"}, {"measurement": "hemolytic activity", "setting": "chicken RBCs", "result": 6.4, "unit": "%"}, {"measurement": "reduction of intracellular survival of APEC O1", "setting": "APEC O1 in THP-1 cells", "result": "up to 0.9 log"}, {"measurement": "hemolytic activity", "setting": "sheep RBCs", "result": 20.6, "unit": "%"}]}, {"smiles": "OCCC1CN(C2CCN(c3ccccc3)CC2)CCN1CCCc1ccccc1", "note": "(stereo not shown) [C10, 2-[4-(1-phenyl-4-piperidinyl)-1-(3-phenylpropyl)-2-piperazinyl]ethanol]", "values": [{"measurement": "clearance of intracellular APEC O2", "setting": "APEC O2 in THP-1 cells", "result": 100, "unit": "%"}, {"measurement": "reduction of intracellular survival of APEC O2", "setting": "APEC O2 in THP-1 cells", "result": 4, "unit": "logs"}, {"measurement": "reduction of intracellular survival of APEC O1", "setting": "APEC O1 in HD-11 cells", "result": "up to 0.9 logs"}, {"measurement": "reduction of intracellular survival of APEC O78", "setting": "APEC O78 in THP-1 cells", "result": "up to 0.7 logs"}, {"measurement": "clearance of intracellular APEC O78", "setting": "APEC O78 in HD-11 cells", "result": 100, "unit": "%"}, {"measurement": "reduction of intracellular survival of APEC O78", "setting": "APEC O78 in HD-11 cells", "result": "~ 4 logs"}, {"measurement": "cytotoxicity (LDH release)", "setting": "Caco-2 cells", "result": 27, "unit": "%"}, {"measurement": "reduction of intracellular survival of APEC O1", "setting": "APEC O1 in THP-1 cells", "result": "up to 0.9 log"}]}, {"smiles": "CCc1ccccc1Nc1nc(-c2c(C)nc3ccccn23)cs1", "note": "[C8, N-(2-ethylphenyl)-4-(2-methylimidazo[1,2-a]pyridin-3-yl)-1,3-thiazol-2-amine]", "values": [{"measurement": "reduction of intracellular survival of APEC O78", "setting": "APEC O78 in HD-11 cells", "result": "up to 1 logs"}, {"measurement": "cytotoxicity (LDH release)", "setting": "Caco-2 cells", "result": 2, "unit": "%"}, {"measurement": "cytotoxicity (LDH release)", "setting": "HD-11 cells", "result": "less than 10%"}]}, {"smiles": "Fc1ccc(CN2CCCN(Cc3nc(-c4ccc(C(F)(F)F)cc4)no3)CC2)cc1", "note": "[C9, 1-(4-fluorobenzyl)-4-({3-[4-(trifluoromethyl)phenyl]-1,2,4-oxadiazol-5-yl}methyl)-1,4-diazepane]", "values": [{"measurement": "clearance of intracellular APEC O2", "setting": "APEC O2 in THP-1 cells", "result": 100, "unit": "%"}, {"measurement": "reduction of intracellular survival of APEC O2", "setting": "APEC O2 in THP-1 cells", "result": 4, "unit": "logs"}, {"measurement": "clearance of intracellular APEC O78", "setting": "APEC O78 in HD-11 cells", "result": 100, "unit": "%"}, {"measurement": "reduction of intracellular survival of APEC O78", "setting": "APEC O78 in HD-11 cells", "result": "~ 4 logs"}, {"measurement": "reduction of intracellular survival of APEC O1", "setting": "APEC O1 in THP-1 cells", "result": "up to 0.9 log"}]}, {"smiles": "O=[N+]([O-])c1cccc(S(=O)(=O)Nc2ccc(Br)cc2)c1", "note": "[C6, N-(4-bromophenyl)-3-nit robenzenesulfonamide]", "values": [{"measurement": "cytotoxicity (LDH release)", "setting": "Caco-2 cells", "result": 27, "unit": "%"}, {"measurement": "survival of larvae treated with compound (toxicity)", "setting": "G. mellonella larvae", "result": 100, "unit": "%"}]}, {"smiles": "COCCN1CCC(CN(Cc2ccncc2)Cc2ccccc2Cl)CC1", "note": "[C1, (2-chlorobenzyl){[1-(2-methoxyethyl)-4-piperidinyl]methyl}(4-pyridinylmethyl)amine]", "values": [{"measurement": "reduction of intracellular survival of APEC O1", "setting": "APEC O1 in THP-1 cells", "result": "up to 0.9 log"}, {"measurement": "survival of larvae treated with compound (toxicity)", "setting": "G. mellonella larvae", "result": 100, "unit": "%"}]}]}
